Data taken from patent publication US7196074B2, “Methods of making, using and pharmaceutical formulations comprising 7α, 11β-dimethyl-17β-hydroxyestra-4, 14-dien-3-one and 17 esters thereof” (The United States of America as represented by the …, priority 2000, dated 2007).

Tests used:
ventral prostate weight [1] = assay: Duration of androgenic activity after subcutaneous injection, ventral prostate weight over weeks in orchidectomized immature rats; type: in vivo, Sprague-Dawley rats; settings: for ventral prostate weight over time after single subcutaneous injection (in words): 0.6 mg in 0.2 ml aqueous vehicle; for AUC of ventral prostate weight, times greater than for testosterone enanthate in oily carrier: active in aqueous vehicle versus testosterone enanthate in sesame oil/oily carrier, single subcutaneous 0.6 mg
Description: Immature (about 21-day-old) Sprague-Dawley rats were orchidectomized under anesthesia, and randomly assignee to groups of ten animals for each dose level of the active undergoing testing. Each active was administered by subcutaneous injection each day for seven days beginning on the date of the orchidectomy. The animals were sacrificed 24 hours after the last dose, and the ventral prostate and seminal vesicles were excised, cleaned of fat and connective tissue, blotted on moist filter paper and weighed to the nearest 0.1 mg. Regression analysis was performed by conventional methods using a PROPHET data management system. Ventral prostate weight was used as the endpoint because it is the sensitive organ to androgenic stimulation.
Except for testosterone enanthate, each active was formulated in two different carriers: (1) an aqueous suspension and (2) in sesame oil. Testosterone enanthate was formulated using the sesame oil carrier only, because it exists as a liquid at room temperature and could not therefore be formulated as an aqueous suspension.
(§1) The carrier used to provide the aqueous suspension was formulated as follows: 1 g benzyl alcohol, 0.5 g sodium carboxylethyl cellulose 50, 0.376 g disodium hydrogen phosphate dihydrate, 1.495 g sodium dihydrogen phosphate dihydrate, with water for injection (WFI) being added to bring volume of the carrier up to 100 ml.
Each formulation was prepared at a concentration of 0.6 mg/0.2 ml.
Immature (about 21-day-old) Sprague-Dawley rats were orchidectomized under anesthesia, and randomly assignee to groups of 40 or more. Animals received a single subcutaneous injection of 0.6 mg of each ester in 0.2 ml of an aqueous suspending carrier and/or oily carrier (10% ethanol/90% sesame oil or ethyl oleate) on the date of the orchidectomy. In cases where the ester was not solid at room temperature, 10% ethanol/sesame oil or ethyl oleate was used as the carrier. In this example, the carrier used to provide the aqueous suspension was formulated as follows: 1 g benzyl alcohol, 0.5 g sodium carboxylethyl cellulose 50, 0.376 g disodium hydrogen phosphate dihydrate, 1.495 g sodium dihydrogen phosphate dihydrate, with water for injection (WFI) being added to bring volume of the carrier up to 100 ml.
Five animals from each group were sacrificed at weekly or biweekly intervals, and the ventral prostate and seminal vesicles were excised, cleaned of fat and connective tissue, blotted on moist filter paper and weighed to the nearest 0.1 mg.
Ventral prostate weight was used as the endpoint because it is the sensitive organ to androgenic stimulation. Regression analysis was performed by conventional methods using the PROPHET data management system previously identified.
Immature (about 21-day-old) Sprague-Dawley rats were orchidectomized under anesthesia, and randomly assignee to groups of 40 or more. Animals received a single subcutaneous injection of 0.6 mg of the undecanoate in 0.2 ml of an aqueous suspending carrier and/or oily carrier (10% ethanol/90% sesame oil containing 5 mg/ml chlorobutanol as a preservative, or ethyloleate) on the date of the orchidectomy. The enanthate ester was formulated using the 10% ethanol/sesame oil or ethyloleate carrier as a first standard, with the 10% ethanol/sesame oil carrier used as a second standard.
as §1, with “In this example, the” for “The”
Immature (about 21-day-old) Sprague-Dawley rats were orchidectomized under anesthesia, and randomly assignee to groups of 40 or more. […] The enanthate ester was formulated using the 10% ethanol/sesame oil or ethyloleate carrier as a first standard, with the 10% ethanol/sesame oil carrier used as a second standard.

ventral prostate weight [2] = assay: Subcutaneous androgenic potency, ventral prostate weight assay in orchidectomized immature rats (injection daily for seven days); type: in vivo, Sprague-Dawley rats
Description: (§2) Immature (about 21-day-old) Sprague-Dawley rats were orchidectomized under anesthesia, and randomly assignee to groups of ten animals for each dose level of the active undergoing testing. Each active was dissolved in 10% ethanol/sesame oil and administered by gavage (oral) or subcutaneous injection each day for seven days beginning on the date of the orchidectomy. The animals were sacrificed 24 hours after the last dose, and the ventral prostate and seminal vesicles were excised, cleaned of fat and connective tissue, blotted on moist filter paper and weighed to the nearest 0.1 mg. Regression analysis was performed by conventional methods using a PROPHET data management system. Ventral prostate weight was used as the endpoint because it is the sensitive organ to androgenic stimulation.
as §2, with “by” for “by gavage (oral) or”, “mg. See, e.g., Hershberger, L. et al, Myotrophic Activity of 19-nortestosterone And Other Steroids Determined By Modified Levator And Muscle Method, Proc. Soc. Exptl. Bid. Med. 83 175–180 (1953).” for “mg.”, “system. See, e.g., Bliss, C., The Statistics of Bioassay (Academic Press, New York, 1952); Hollister, C., Nucleic Acids Res. 16 1873–75 (1988).” for “system.”
Immature (about 22-day-old) Sprague-Dawley male rats were orchidectomized under anesthesia, and randomly assignee to groups of ten animals for each dose level of the active undergoing testing. […] Illumination was controlled for 14 hour periods of light and 10 hours of darkness.
Each active was administered by subcutaneous injection of 0.6 mg of test material in aqueous suspending vehicle (ASV) and/or an oily vehicle (10% ethanol/sesame oil) on the day of surgery. Testosterone enanthate in sesame oil was used as a standard. The ventral prostate and seminal vesicles were excised, cleaned of fat and connective tissue, blotted on moist filter paper and weighed to the nearest 0.1 mg. Regression analysis was performed by conventional methods using a PROPHET data management system. Ventral prostate weight was used as the endpoint because it is the sensitive organ to androgenic stimulation.

SMILES	ventral prostate weight over time after single subcutaneous injection (in words) (ventral prostate weight [1])	activity in potency and duration after subcutaneous injection (in words), FIG. 5 (ventral prostate weight [1]; 0.6 mg/0.2 ml, aqueous suspension or sesame oil, ventral prostate weight)	AUC of ventral prostate weight, times greater than for testosterone enanthate in oily carrier (ventral prostate weight [1])	AUC of ventral prostate weight over the 10-week period, rank among bucyclate esters (ventral prostate weight [1]; single subcutaneous 0.6 mg suspended in aqueous carrier, FIG. 9)	activity after subcutaneous administration (in words) (ventral prostate weight [2]; subcutaneous injection daily for 7 days in 10% ethanol/sesame oil, ventral prostate weight)	Androgenic Potency (activity of corresponding alcohol) (ventral prostate weight [2]; ventral prostate weight assay following subcutaneous administration, alcohol of G = 1.0 (assigned), value is for the free alcohol of the listed ester)	ventral prostate weight over time after single subcutaneous injection (in words) (ventral prostate weight [1]; listed as CDB-4521)	area under the curve (AUC, trapezoidal rule) of ventral prostate weight (ventral prostate weight [1]; single subcutaneous 0.6 mg in aqueous vehicle, 10 week period, FIG. 15) [mg-weeks]	subcutaneous androgenic activity relative to testosterone (ventral prostate weight [2]; subcutaneous injection daily for 7 days in 10% ethanol/sesame oil (oily carrier), ventral prostate weight) [times]
CCCC[C@H]1CC[C@H](C(=O)O[C@H]2CC[C@H]3[C@H]4[C@H]([C@@H](C)C[C@]23C)[C@H]2CCC(=O)C=C2C[C@H]4C)CC1 (relative stereo) [Compound I, 7α,11β-Dimethyl-17β-hydroxy-4-estren-3-one 17β-trans-4-n-butylcyclohexane carboxylate]	most dramatic increase and maintenance of ventral prostate weight	far exceeds the activity exhibited by the comparative esters	about 3 times	greatest AUC	relatively weak activity	19.3			
CCCCCCCCCCC(=O)O[C@H]1CC[C@H]2[C@H]3[C@H]([C@@H](C)C[C@]12C)[C@H]1CCC(=O)C=C1C[C@H]3C [Compound II, 7α,11β-dimethyl-17β-hydroxyestr-4-en-3-one 17-undecanoate]			about 3 times				most dramatic increases and maintenance of ventral prostate weight	1817	0.52
